PMC5931576, “Allosteric modulation of the farnesoid X receptor by a small molecule” (Scientific Reports, 2018)

Experiments:
[1] = system: FXR-LBD; experiment: Thermal shift assay (SYPRO Orange); format: binding; details: compound 100 µM alone, 5 µM FXR-LBD; mean ± SEM, n ≥ 4
Method: Thermal shift experiments were performed in clear 96-well plates (Invitrogen) using SYPRO Orange (Invitrogen) as dye as described previously[38]. 10 μL of test compound (final concentrations: 3: 100 µM; 16: 100 µM) in assay buffer (10 mM TRIS (pH 8.3), 5 mM DTT, 0.5 mM EDTA, 100 mM NaCl) were mixed with 10 μL of FXR-LBD (final protein concentration 5 µM) in assay buffer and 5 µL of SYPRO Orange (5 × final concentration). Temperature-dependent fluorescence increase reporting protein denaturation was measured in duplicates in an ICycler (Bio-Rad Laboratories, Hercules, CA, USA) from 20 to 90 °C in steps of 0.5 °C per minute at 300 nm excitation and 570 nm emission wavelength. The first derivative of the melting curve was calculated using the Graph Pad Prism 5 software. All curves were determined at least four times in independent experiments.

[2] = system: T1, RXRα; experiment: Gal4-DBD-RXRα-LBD hybrid reporter gene assay; format: cell-based, human
T1 construct: expressed in transfected cells; host or cells: HEK293T
From the text: (§1) The Gal4-fusion receptor plasmids pFA-CMV-hPPARα-LBD[34], pFA-CMV-hPPARγ-LBD[34], pFA-CMV-hPPARδ-LBD[34], pFA-CMV-hLXRα-LBD[35], pFA-CMV-hLXRβ-LBD[35], pFA-CMV-hRXRα-LBD[36], pFA-CMV-hRXRβ-LBD[36], pFA-CMV-hRXRγ-LBD[36], pFA-CMV-hRARα-LBD[36], pFA-CMV-hRARβ-LBD[36], pFA-CMV-hRARγ-LBD[36], pFA-CMV-hVDR-LBD[36] and pFA-CMV-hCAR-LBD[36] coding for the hinge region and ligand binding domain (LBD) of the canonical isoform of the respective nuclear receptor have been reported previously. pFR-Luc (Stratagene) was used as reporter plasmid and pRL-SV40 (Promega) for normalization of transfection efficiency and cell growth.
(§2) HEK293T cells were grown in DMEM high glucose, supplemented with 10% FCS, sodium pyruvate (1 mM), penicillin (100 U/mL) and streptomycin (100 μg/mL) at 37 °C and 5% CO2. The day before transfection, HEK293T cells were seeded in 96-well plates (2.5·10^4 cells/well). Before transfection, medium was changed to Opti-MEM without supplements. Transient transfection was carried out using Lipofectamine LTX reagent (Invitrogen) according to the manufacturer’s protocol with pFR-Luc (Stratagene), pRL-SV40 (Promega) and pFA-CMV-hNR-LBD. […] Luminescence was measured with an Infinite M200 luminometer (Tecan Deutschland GmbH) or a Tecan Spark 10 M luminometer (Tecan). […]

[3] = system: PPARα/γ/δ, LXRα/β, RXRα/β/γ, RARα/β/γ, VDR and CAR; experiment: Hybrid reporter gene assays for nuclear receptors related to FXR; format: cell-based, human
From the text: as §1, §2

[4] = system: Abl; experiment: Kinase inhibition assay (radiometric or HTRF); format: biochemical
[5] = system: c-Kit; experiment: Kinase inhibition assay (radiometric or HTRF); format: biochemical
[6] = system: PDGF-Rα; experiment: Kinase inhibition assay (radiometric or HTRF); format: biochemical
[7] = system: kinases that interact with FXR; experiment: Kinase inhibition profile, kinases that interact with FXR; format: biochemical
[8] = system: BSEP mRNA; experiment: FXR target gene quantification (qRT-PCR) in HepG2 cells: BSEP; format: cell-based; details: for BSEP mRNA, mean fold activation compared to DMSO (0.1%): HepG2, 24 h
[9] = system: SHP mRNA; experiment: FXR target gene quantification (qRT-PCR) in HepG2 cells: SHP; format: cell-based; details: for SHP mRNA, mean fold activation compared to DMSO (0.1%): HepG2, 24 h
[10] = system: HepG2 cells; experiment: WST-1 assay; format: cell-based; details: 48 h (or 24 h)
Method: In vitro biological evaluation […]
WST-1 assay (Roche Diagnostics International AG, Rotkreuz, Schweiz) was performed according to manufacturer’s protocol and as described previously. In brief, HepG2 cells were seeded in DMEM high glucose, supplemented with SP (1 mM), penicillin (100 U/mL), streptomycin (100 µg/mL) and 10% FCS in 96-well plates (3∙10^4 cells/well). After 24 h, medium was changed to DMEM high glucose, supplemented with penicillin (100 U/mL), streptomycin (100 µg/mL) and 1% charcoal stripped FCS and cells were incubated with 4 or 16 (final […]
and DMEM/1% DMSO as negative controls. After 48 h (or 24 h), WST reagent (Roche Diagnostics International AG) was added to each well according to manufacturer’s instructions. After 45 min incubation, absorption (450 nm/ reference: 620 nm) was determined with a Tecan Infinite M200 luminometer (Tecan Deutschland GmbH). Each experiment was repeated at least three times in triplicates. […]

## CS(=O)(=O)O.CS(=O)(=O)O.CS(=O)(=O)O.CS(=O)(=O)O.Cc1ccc(NC(=O)c2ccc(Cl)cc2)cc1Nc1nccc(-c2cccnc2)n1.Cc1ccc(NC(=O)c2ccc(Cl)cc2)cc1Nc1nccc(-c2cccnc2)n1.O.O.O [compound 16, 4-Chloro-N-(4-methyl-3-(4-(pyridin-3-yl)pyrimidin-2-ylamino)phenyl)benzamide dimesylate-sesquihydrate]
[1]
  Thermal shift of FXR-LBD melting point: −1.0 ± 0.0 °C
[2]
  RXR agonistic activity (activation of RXRα-Gal4 chimera receptor): did not activate
[3]
  Selectivity over nuclear receptors related to FXR: high selectivity
[4]
  Inhibition of Abl: potent inhibitor
[5]
  Inhibition of c-Kit: potent inhibitor
[6]
  Inhibition of PDGF-Rα: potent inhibitor
[7]
  Inhibition of kinases that interact with FXR: does not markedly inhibit
[8]; HepG2, 16 co-incubated with 1
  CDCA-induced BSEP mRNA expression compared to 1 alone: about 3 fold
[8]; 0.3 µM alone
  BSEP mRNA, mean fold activation compared to DMSO (0.1%): 2.64 ± 0.07
[8]; 16 (0.3 µM) + 1 (20 µM)
  BSEP mRNA, mean fold activation compared to DMSO (0.1%): 4.56 ± 0.77
[8]; 16 (0.3 µM) + 1 (50 µM)
  BSEP mRNA, mean fold activation compared to DMSO (0.1%): 29.37 ± 3.32
[9]; HepG2, 16 co-incubated with 1
  CDCA-induced SHP mRNA expression compared to 1 alone: about 3 fold
[9]; 0.3 µM alone
  SHP mRNA, mean fold activation compared to DMSO (0.1%): 2.32 ± 0.18
[9]; 16 (0.3 µM) + 1 (20 µM)
  SHP mRNA, mean fold activation compared to DMSO (0.1%): 1.64 ± 0.23
[9]; 16 (0.3 µM) + 1 (50 µM)
  SHP mRNA, mean fold activation compared to DMSO (0.1%): 12.70 ± 1.04
[10]; HepG2, 0.1 µM
  WST-1, mean percent of untreated control: 113 ± 1%
[10]; HepG2, 0.3 µM
  WST-1, mean percent of untreated control: 107 ± 7%
[10]; HepG2, 1 µM
  WST-1, mean percent of untreated control: 112 ± 3%
[10]; HepG2, 10 µM
  WST-1, mean percent of untreated control: 92 ± 2%
[10]; HepG2, 50 µM
  WST-1, mean percent of untreated control: 87 ± 2%
[10]; HepG2, 16 (0.3 µM) + 1 (50 µM)
  WST-1, mean percent of untreated control: 93 ± 7%
